According to US10252997B2, “Monocyclic compound” (Takeda Pharmaceutical Company Limited, priority 2015, dated 2019):

What was measured:
HCT116 cells = test: Growth inhibitory activity on HCT116 cell (CellTiter-Glo); assay type: cell-based; details: Homo sapiens, HCT-116, 72 h; test compound 1 μM, 3 days; read-out: HCT116 cell proliferation inhibitory rate (%) at 1 μM
Description: The growth inhibitory activity of the compound on HCT116 cell was evaluated by the following method.
HCT116 cells were seeded in a 384 well blackplate at 900 cells/[…]/well, and maintained in an assay medium (RPMI medium (Wako) containing 2% fetal bovine serum, 50 Unit/mL penicillin and […] streptomycin (Invitrogen)). The next day, a test compound dissolved in dimethyl sulfoxide (DMSO) was diluted with the assay medium, and the obtained compound solution was added by […] to each well of a plate containing HCT116 cells, and incubated at 37° C., 5% CO2 (test compound addition group).
A similar reaction was performed without adding a test compound (test compound non-addition group).
Furthermore, a similar reaction was performed under the conditions without adding HCT116 cell and a test compound (control group).
After 3 days, […] of a CellTiter-Glo reagent (Promega KK) was added to the well, and the mixture was stirred for 10 min. Thereafter, the luminescence value of each well was measured by the EnVision™ multilabel counter (Perkin Elmer Inc.).
The HCT116 cell proliferation inhibitory rate (%) of the test compound was determined by the following calculation formula. (1−(luminescence of test compound addition group−luminescence of control group)÷(luminescence of test compound non-addition group−luminescence of control group))×100
The HCT116 cell proliferation inhibitory rates (%) of the test compound (1 μM) are shown below.

Human ACC1 = target: T1, Human ACC1 (Homo sapiens, UniProt Q13085); test: Measurement of ACC1 inhibitory activity (Malonyl-CoA produced, RapidFire-mass spectrometry); assay type: biochemical; details: 10 μM of the test compound; read-out: ACC1 inhibitory rate (%) at 10 μM
T1 construct: His6 (from vector pFAST-BacHTc; purified on Ni-NTA) (N); made in house; host or cells: SF-9 insect cells, recombinant baculovirus BAC-ACC1
Description: (1) Cloning of Human ACC1 Gene and Preparation of Recombinant Baculovirus
Human ACC1 gene was cloned by PCR using a human liver cDNA library (Clontech) as a template and Primer 1 and Primer 2 shown below. Primer 1 and Primer 2 were prepared by adding SalI, NotI restriction enzyme recognition sequences based on the information of the base sequence of human ACC1 gene (Genbank Accession U19822).
PCR was performed using Pyrobest DNA polymerase (TAKARA BIO INC.). The obtained PCR product was cloned to pT7 Blue vector (Novagen) and after confirmation of the base sequence, digested with restriction enzymes SalI and […]. The obtained DNA fragment was inserted into pFAST-BacHTc (Invitrogen) digested with restriction enzymes SalI and […] to give expression plasmid ACC1/pFAST-BacHTc.
Using the expression plasmid ACC1/pFAST-BacHTc and BAC-TO-BAC Baculovirus Expression System (Invitrogen), virus stock BAC-ACC1 of recombinant Baculovirus was prepared.
(2) Preparation of ACC1 Protein
SF-9 cells (Invitrogen) were inoculated to a medium (10 L) for insect cells (Sf-900IISFM medium (Invitrogen) containing 5% fetal bovine serum (Trace), 50 mg/L Gentamicin (Wako Pure Chemical Industries, Ltd.) and 0.1% Pluronic F-68 (Invitrogen)) at 1.0×10^6 cells/mL, and cultured with shaking in Wave Bioreactor (GE Healthcare) at 27° C., 20 rpm, rocking angle 100, oxygen concentration 30%.
On day 2 of the culture, recombinant Baculovirus BAC-ACC1 was added, and the cells were cultured for 3 days. The culture medium was centrifuged at 4000×g for 10 min to give virus-infected cells. The cells were washed with phosphate buffered saline (Invitrogen) and centrifuged under the same conditions. The obtained cells were cryopreserved at −80° C.
The cryopreserved cells were thawed in ice, and suspended in 800 mL of 25 mM HEPES buffer (pH 7.5) containing 10% Glycerol, 0.3 M NaCl, 1 mM EDTA, 25 mM Sodium β-Glycerophosphate and 1 mM Sodium Orthovanadate, and supplemented with Complete Protease Inhibitor (Roche). The obtained suspension was homogenized two times in a polytron homogenizer (Kinematica) at 20,000 rpm for 20 sec. The obtained cell disruption solution was clarified by centrifugation at 186,000×g for 60 min, and the supernatant was passed through Ni-NTA Superflow Cartridges (5 mL) (QUIAGEN). Furthermore, it was washed with 25 mM HEPES buffer (pH 7.5) containing 20 mM Imidazole and 0.3 M NaCl, and eluted with 25 mM HEPES buffer (pH 7.5) containing 250 mM Imidazol and 0.3 M NaCl. The eluate was concentrated by Amicon Ultra-15 (Nihon Millipore K.K.) having a fraction molecular weight of 50K. The obtained concentrate was subjected to gel filtration with 50 mM HEPES buffer (pH 7.5) containing 10 mM MgCl2, 2 mM dithiothreitol, 10 mM tripotassium citrate and 0.3 M NaCl by using HiLoad 26/60 Superdex200 prep grade gel filtration column (GE Healthcare) to give ACC1. The obtained ACC1 was cryopreserved at −80° C.
(3) Measurement of ACC1 Inhibitory Activity
ACC1 obtained in the above-mentioned (2) was diluted with an enzyme reaction buffer (50 mM HEPES (pH 7.5), 10 mM MgCl2, 10 mM Tripottasium Citrate, 2 mM Dithiothreitol, 0.001% Fatty acid free BSA) to a concentration of 0.2 μg/ml, and the mixture was added to each well of a 384 well assay plate by 10 μl. A test compound dissolved in dimethyl sulfoxide (DMSO) was diluted with an enzyme reaction buffer, and the resulting solution (5 μl) was added to each well. The mixture was incubated at room temperature for 60 min. Then, a substrate solution (50 mM KHCO3, 200 μM ATP, 200 μM Acetyl-CoA, 5 μl) was added to each well, and the mixture was reacted at room temperature for 30 min. The reaction was quenched by adding a reaction quenching liquid (1.3% formic acid, 0.2 μM Malonyl-^13C3-CoA) by 60 μL each to the obtained reaction mixtures (test compound addition group).
In addition, a reaction was performed in the same manner as above and without adding the test compound (test compound non-addition group). […]

inhibition at 10 µM (Human ACC1) | SMILES | inhibition at 1 µM (HCT116 cells)
97% | CC(=O)NC(C)c1ccc(OCc2c(F)cc(Oc3cccc(OCC4CC4)c3)cc2F)nn1 (stereo not shown) [Example 78, N-(1-(6-((4-(3-(cyclopropylmethoxy)phenoxy)-2,6-difluorobenzyl)oxy)pyridazin-3-yl)ethyl)acetamide] | 12%
97% | CC(=O)NC(C)CCc1coc(-c2ccc(Oc3cccc(OCC4CC4)c3)cc2)n1 (stereo not shown) [Example 83, N-(4-(2-(4-(3-(cyclopropylmethoxy)phenoxy)phenyl)-1,3-oxazol-4-yl)butan-2-yl)acetamide] | 28%
